Patent US11419902B2, “Compositions comprising bacterial strains” (4D Pharma Research Limited, priority 2018, dated 2022)

What was measured:
HDAC2 = target: T1, HDAC2 (Homo sapiens, UniProt Q92769); experiment: Specific HDAC activity analysis (fluorogenic assay kit); format: biochemical; settings: cell free supernatant diluted 1 in 10
T1 construct: purchased BPS Bioscience, CA
Procedure: (§1) Specific HDAC inhibition activity was analysed for HDAC1, 2, 3, 4, 5, 6, 9 using fluorogenic assay kits for each type of HDAC (BPS Bioscience, CA). Assays were conducted according to manufacturer's instructions and each sample were performed in replicates. Cell free supernatants were diluted 1 in 10 and exposed to specific HDAC proteins provided in the kit to maintain consistency between methods.
(§2) The specific HDAC inhibition profile of the test bacteria strain was investigated. Specific HDAC inhibition assays (BPS Bioscience, CA) were carried out for Class I and Class II HDACs. The ability of the bacterial strain to inhibit HDAC enzymes was compared to butyrate, hexanoic and valeric acid.

class II HDACs = experiment: as above; format: biochemical; settings: data not shown
Procedure: as §1, §2

HDAC3 = target: T2, HDAC3 (Homo sapiens, UniProt O15379); experiment: as above; format: biochemical; settings: cell free supernatant diluted 1 in 10
T2 construct: purchased BPS Bioscience, CA
Procedure: as §1, §2

HDAC1 = target: T3, HDAC1 (Homo sapiens, UniProt Q13547); experiment: as above; format: biochemical; settings: cell free supernatant diluted 1 in 10
T3 construct: purchased BPS Bioscience, CA
Procedure: as §1, §2

MAP2 = MAP2 gene expression in 451Lu cell line (qPCR); format: cell-based; settings: relative to the cell line only negative control
Procedure: Cells were plated in 12-well plates at density of 2×10^5 cells/well. After 24 h cells were treated with either DMSO or Vemurafenib (662005; EMD Millipore; VEMU; SKMEL28, SKMEL31, 451Lu, HT29 (1 μM) SKMEL2 (10 μM) or Azacytidine-C (A3656; Sigma Aldrich; AzaC; 5 μg/ml) or both drugs (VEMU+Aza) together, in presence of 10% bacteria supernatants or absence of it (YCFA+). Total RNA was extracted using the RNeasy mini kit (Qiagen, Manchester, UK) according to the manufacturer's instructions, and the RNA concentration was determined by spectrophotometer at 260/280 nm (NanoDrop ND-1000; Thermo Fisher Scientific, Loughborough). For mRNA expression analysis, cDNA was prepared from 2000 ng of total RNA using the High-Capacity cDNA reverse transcription kit (Thermo Fisher, Loughborough) according to the manufacturer's instructions. The reverse transcription reactions were performed in a thermocycler (Biometra, Germany) at 25° C. for 10 min, 37° C. for 120 min, and 85° C. for 5 min Resulting cDNA was amplified in duplicates by the SYBR-Green PCR assay, and products were detected on QuantStudio 6 flex real-time PCR machine (Applied Biosystems, UK) using a standardised profile (initial denaturation of 95° C. for 10 minutes, followed by 40 cycles of 10 seconds of denaturation at 95° C. and 30 seconds of annealing/extension at 65° C.). […]

HDAC = HDAC inhibition on HT-29 cell lysate; format: biochemical
Procedure: Pure cultures of bacteria were grown anaerobically in YCFA+ broth until they reached their stationary growth phase. Cultures were centrifuged at 5,000×g for 5 minutes and the cell-free supernatant (CFS) was filtered using a […] (Millipore, UK). 1 mL aliquots of the CFS were stored at −80° C. until use. Sodium butyrate, hexanoic and valeric acid were obtained from Sigma Aldrich (UK) and suspensions were prepared in YCFA+ broth.
To investigate which metabolites were responsible for the strain-induced HDAC inhibition, different concentrations of hexanoic acid, valeric acid and sodium butyrate were measured for their HDAC inhibition on whole HT-29 cells and on HT-29 cell lysate.

[1] = system: ERK signalling (phosphorylated ERK1 and 2/total ERK); experiment: ERK signalling in SKMEL31 cell line (Western blot); format: cell-based; settings: SKMEL31, relative to the negative control (YFCA+)
Procedure: Following 24 h treatment with the appropriate drugs either in presence of 10% bacterial supernatant or absence (YCFA+), protein extracts were obtained by lysing cells in RIPA buffer (R0278; Sigma Aldrich) supplemented with protease inhibitors (cOmplete Protease Inhibitor Cocktail Tablets; Roche, Switzerland) and 1 mM/L sodium orthovanadate, 0.5 mM/L PMSF. Protein quantification was done by the BCA protein assay. Equal amounts of total protein (20 μg/lane) were then separated by SDS-PAGE on 4-15% gradient gel (BioRad) and transferred to polyvinylidene difluoride (PVDF) membranes (Thermo Fisher Scientific, Loughborough). […]
Proteins of interest were detected with the appropriate HRP-conjugated secondary antibody (1:10,000, Thermo Fisher Scientific, Loughborough), developed with the ECL Western blotting Super Signal PicoPlus substrate (34577; Thermo Fisher Scientific, Loughborough), and visualised in Chemidoc XRS Imager (BioRad).
The effects of the following treatments were assessed on the SKMEL31 melanoma cell line (heterozygous for BRAF V600E): (1) MRx0029; (2) Vemurafenib (VEMU) in YFCA+ medium; (3) VEMU and MRx0029; (4) Azacytidine-C (Aza-c) in YFCA+ medium; (5) Aza-c and MRx0029; (6) VEMU, Aza-c and MRx0029.

DRD2 = DRD2 expression in SH-SY5Y cells; format: cell-based; settings: vs untreated cells
Procedure: SH-SY5Y were plated in 10 cm petri dishes a density of 2×10^6 cells. After 24 h cells were treated in differentiation medium (growth medium containing 1% FBS without RA) with 10% bacteria supernatants or YCFA+, 10 uM RA, 200 uM hexanoic acid or 200 uM valproic acid, for 17 hrs. There after representative images were taken using phase contrast EVOS XL core microscope at 40×10.65 magnification. Cells were collected, and total RNA was isolated according to RNeasy mini kit protocol (Qiagen). cDNAs were made using the high capacity cDNA reverse transcription kit (Applied Biosystems). Gene expression was measured using qPCR. GAPDH was used as internal control. Fold change was calculated according to the 2^(−ΔΔct) method.
The inventors measured the change in DRD2 expression in neuroblastoma cells using the same method as described in Example 1.

Caspase 3 (Casp3) = experiment: Caspase 3 expression in SH-SY5Y cells; format: cell-based; settings: undifferentiated SH-SY5Y cells, vs control
Excerpt: The inventors measured the change in Casp3 expression in neuroblastoma cells.

T1 sequence (Q92769 whole entry): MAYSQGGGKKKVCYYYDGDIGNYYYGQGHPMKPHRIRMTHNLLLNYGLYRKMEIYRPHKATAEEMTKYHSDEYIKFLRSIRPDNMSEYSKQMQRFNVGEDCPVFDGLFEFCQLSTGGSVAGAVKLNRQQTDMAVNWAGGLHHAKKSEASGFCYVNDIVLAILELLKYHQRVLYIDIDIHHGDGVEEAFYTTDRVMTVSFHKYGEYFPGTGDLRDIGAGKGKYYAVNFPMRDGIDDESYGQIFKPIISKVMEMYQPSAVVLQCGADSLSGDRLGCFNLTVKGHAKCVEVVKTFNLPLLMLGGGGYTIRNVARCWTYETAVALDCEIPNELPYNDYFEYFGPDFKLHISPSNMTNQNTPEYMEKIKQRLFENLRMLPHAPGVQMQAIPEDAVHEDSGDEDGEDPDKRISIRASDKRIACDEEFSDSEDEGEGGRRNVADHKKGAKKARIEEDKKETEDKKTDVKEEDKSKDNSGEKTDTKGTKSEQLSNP
T3 sequence (Q13547 whole entry): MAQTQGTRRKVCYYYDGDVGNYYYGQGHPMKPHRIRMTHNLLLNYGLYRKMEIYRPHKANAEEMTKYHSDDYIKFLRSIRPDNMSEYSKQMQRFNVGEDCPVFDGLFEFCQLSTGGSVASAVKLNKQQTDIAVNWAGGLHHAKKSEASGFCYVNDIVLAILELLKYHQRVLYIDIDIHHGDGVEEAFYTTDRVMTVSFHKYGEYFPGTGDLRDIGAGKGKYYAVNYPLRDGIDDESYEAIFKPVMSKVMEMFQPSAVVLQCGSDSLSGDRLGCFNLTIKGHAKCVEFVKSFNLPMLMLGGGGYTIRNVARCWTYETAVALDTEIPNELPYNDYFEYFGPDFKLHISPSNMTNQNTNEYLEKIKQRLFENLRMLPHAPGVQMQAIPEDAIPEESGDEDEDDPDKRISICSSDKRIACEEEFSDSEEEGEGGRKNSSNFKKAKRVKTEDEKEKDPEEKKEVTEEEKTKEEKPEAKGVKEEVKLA
T2 sequence (O15379 whole entry): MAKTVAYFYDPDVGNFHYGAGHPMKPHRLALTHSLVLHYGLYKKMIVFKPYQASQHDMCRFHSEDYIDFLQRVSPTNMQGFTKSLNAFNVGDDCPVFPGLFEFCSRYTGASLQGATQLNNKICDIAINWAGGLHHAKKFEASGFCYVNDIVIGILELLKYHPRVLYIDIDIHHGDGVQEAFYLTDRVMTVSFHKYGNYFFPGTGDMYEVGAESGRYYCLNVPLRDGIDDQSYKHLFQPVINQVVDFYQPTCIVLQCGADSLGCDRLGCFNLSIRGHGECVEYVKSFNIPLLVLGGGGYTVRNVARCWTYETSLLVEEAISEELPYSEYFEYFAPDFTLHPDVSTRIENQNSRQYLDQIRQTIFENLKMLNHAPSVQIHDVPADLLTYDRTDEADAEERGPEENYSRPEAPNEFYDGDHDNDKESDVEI
T2 sequence (Q9Y618 395-489 partner limits assumed): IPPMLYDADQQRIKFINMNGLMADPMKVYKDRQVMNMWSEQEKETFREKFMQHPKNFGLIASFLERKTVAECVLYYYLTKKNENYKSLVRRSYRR

Megasphaera massiliensis MRx0029
inhibition of HDAC2 (HDAC2): very potent inhibitor | inhibition of class II HDACs (class II HDACs): not as significant | inhibition of HDAC3 (HDAC3): very potent inhibitor | inhibition of HDAC1 (HDAC1): very potent inhibitor | MAP2 gene expression (MAP2): increased MAP2 gene expression | HDAC inhibition on HT-29 cell lysate (HDAC): strong HDAC inhibition | ERK signalling [1]: reduced ERK signalling | expression of DRD2 (DRD2): significantly decreased the expression of DRD2 | expression of Casp3 (Caspase 3 (Casp3)): increased the expression of Casp3 threefold
